Data published in US20200368247A1, “CENICRIVIROC FOR THE TREATMENT OF FIBROSIS” (Tobira Therapeutics, Inc., priority 2014, published 2020).

Key:
Format in all cases: in vivo, human
[1] = Study 202 fasting metabolic laboratory parameters
Text: All abnormalities in total cholesterol, LDL cholesterol, triglycerides, or glucose were Grade 1 or Grade 2.
Mean baseline values and changes from baseline in HbA1c, HOMA-IR, fasting LDL, fasting HDL, fasting total cholesterol, fasting total cholesterol/HDL ratio, and fasting triglycerides are shown in Table 36.

[2] = Study 202 post-hoc APRI and FIB-4 fibrosis index scores
Method: APRI and FIB-4 scores were calculated. Change in score category from baseline (BL) to Weeks 24 and 48 was assessed in patients with non-missing data. Correlations between changes from BL in APRI and FIB-4 scores, and MCP-1 (CCR2 ligand) and sCD14 (inflammatory biomarker) levels were evaluated.

[3] = Study 202 biomarkers of inflammation
Method: As an exploratory analysis, levels of inflammation biomarkers MCP-1, sCD14, high sensitivity C-reactive protein [hs-CRP], interleukin-6 [IL-6], D-dimer, and fibrinogen) were measured. Baseline values and changes from baseline at Week 24 and Week 48 of MCP-1, sCD14, hs-CRP, IL-6, D-dimer, and fibrinogen are summarized in Table 25.
The sCD14 samples were originally analyzed in 2 separate batches: Batch 1 included samples leading up to the Week 24 primary analysis and Batch 2 included Week 32 and Week 48 (end of study) samples. A repeat analysis of archived samples all analyzed in one batch was conducted for consistency in analysis across time points. To control for the effects of covariates, a linear mixed-model repeated-measures analysis was conducted on the changes from baseline in sCD14 (analysis dated September 2013).

[4] = CVC 100 mg (N = 58), through Week 48
[5] = CVC 200 mg (N = 57), through Week 48

CCCCOCCOc1ccc(-c2ccc3c(c2)/C=C(/C(=O)Nc2ccc([S@@+]([O-])Cc4cncn4CCC)cc2)CCCN3CC(C)C)cc1 [CVC, (S)-8-[4-(2-Butoxyethoxy)phenyl]-1-isobutyl-N-(4-{[(1-propyl-1H-imidazol-5-yl)methyl]sulfinyl}phenyl)-1,2,3,4-tetrahydro-1-benzazocine-5-carboxamide]
Fasting glucose (serum, high) abnormality, Grade 1 [1, 4]: 0 n (%) | Fasting glucose (serum, high) abnormality, Grade 2 [1, 4]: 0 n (%) | Fasting glucose (serum, high) abnormality, Grade 3 [1, 4]: 0 n (%) | Fasting glucose (serum, high) abnormality, Grade 4 [1, 4]: 0 n (%) | Fasting glucose (serum, high) abnormality, any grade [1, 4]: 0 n (%) | Fasting total cholesterol abnormality, Grade 1 [1, 4]: 3 (5%) n (%) | Fasting total cholesterol abnormality, Grade 2 [1, 4]: 0 n (%) | Fasting total cholesterol abnormality, Grade 3 [1, 4]: 0 n (%) | Fasting total cholesterol abnormality, Grade 4 [1, 4]: 0 n (%) | Fasting total cholesterol abnormality, any grade [1, 4]: 3 (5%) n (%) | Fasting triglycerides abnormality, Grade 1 [1, 4]: 0 n (%) | Fasting triglycerides abnormality, Grade 2 [1, 4]: 0 n (%) | Fasting triglycerides abnormality, Grade 3 [1, 4]: 0 n (%) | Fasting triglycerides abnormality, Grade 4 [1, 4]: 0 n (%) | Fasting triglycerides abnormality, any grade [1, 4]: 0 n (%) | change in fasting total cholesterol (mainly LDL cholesterol) ([1]; CVC 100 mg and 200 mg, through Week 48): decrease | Fasting triglycerides, mean change from baseline ([1]; CVC 100 mg, Week 4): -8 mg/dL | HbA1c, mean change from baseline ([1]; CVC 100 mg, Week 4): 0.01 % Hb | HbA1c, mean change from baseline ([1]; CVC 100 mg, Week 12): −0.04 % Hb | Fasting triglycerides, mean change from baseline ([1]; CVC 100 mg, Week 24): -8 mg/dL | HbA1c, mean change from baseline ([1]; CVC 100 mg, Week 24): 0.06 % Hb | HbA1c, mean change from baseline ([1]; CVC 100 mg, Week 48): 0.09 % Hb | Any fasting laboratory abnormality, worst Grade 1 [1, 5]: 6 (11%) n (%) | Any fasting laboratory abnormality, worst Grade 2 [1, 5]: 6 (11%) n (%) | Any fasting laboratory abnormality, worst Grade 3 [1, 5]: 0 n (%) | Any fasting laboratory abnormality, worst Grade 4 [1, 5]: 0 n (%) | Any graded (Grade 1-4) fasting laboratory abnormality [1, 5]: 12 (21%) n (%) | Fasting LDL cholesterol abnormality, Grade 1 [1, 5]: 2 (4%) n (%) | Fasting LDL cholesterol abnormality, Grade 2 [1, 5]: 2 (4%) n (%) | Fasting LDL cholesterol abnormality, Grade 3 [1, 5]: 0 n (%) | Fasting LDL cholesterol abnormality, Grade 4 [1, 5]: 0 n (%) | Fasting LDL cholesterol abnormality, any grade [1, 5]: 4 (7%) n (%) | Fasting glucose (serum, high) abnormality, Grade 1 [1, 5]: 3 (5%) n (%) | Fasting glucose (serum, high) abnormality, Grade 2 [1, 5]: 2 (4%) n (%) | Fasting glucose (serum, high) abnormality, Grade 3 [1, 5]: 0 n (%) | Fasting glucose (serum, high) abnormality, Grade 4 [1, 5]: 0 n (%) | Fasting glucose (serum, high) abnormality, any grade [1, 5]: 5 (9%) n (%) | Fasting total cholesterol abnormality, Grade 1 [1, 5]: 2 (4%) n (%) | Fasting total cholesterol abnormality, Grade 2 [1, 5]: 3 (5%) n (%) | Fasting total cholesterol abnormality, Grade 3 [1, 5]: 0 n (%) | Fasting total cholesterol abnormality, Grade 4 [1, 5]: 0 n (%) | Fasting total cholesterol abnormality, any grade [1, 5]: 5 (9%) n (%) | Fasting triglycerides abnormality, Grade 1 [1, 5]: 0 n (%) | Fasting triglycerides abnormality, Grade 2 [1, 5]: 1 (2%) n (%) | Fasting triglycerides abnormality, Grade 3 [1, 5]: 0 n (%) | Fasting triglycerides abnormality, Grade 4 [1, 5]: 0 n (%) | Fasting triglycerides abnormality, any grade [1, 5]: 1 (2%) n (%) | Fasting triglycerides, mean change from baseline ([1]; CVC 200 mg, Week 4): -2 mg/dL | HbA1c, mean change from baseline ([1]; CVC 200 mg, Week 4): −0.08 % Hb | HbA1c, mean change from baseline ([1]; CVC 200 mg, Week 12): −0.08 % Hb | HbA1c, mean change from baseline ([1]; CVC 200 mg, Week 24): 0.06 % Hb | Fasting total cholesterol, mean change from baseline ([1]; CVC 200 mg, Week 48): -9 mg/dL | HbA1c, mean change from baseline ([1]; CVC 200 mg, Week 48): 0.10 % Hb | APRI 0.5-1.5, patients ([2]; Baseline): 14% | APRI <0.5, patients ([2]; Baseline): 84% | APRI >1.5, patients ([2]; Baseline): 2% | FIB-4 1.45-3.25, patients ([2]; Baseline): 17% | FIB-4 <1.45, patients ([2]; Baseline): 82% | FIB-4 >3.25, patients ([2]; Baseline): 1% | APRI 0.5-1.5, patients ([2]; Week 24): 7% | APRI <0.5, patients ([2]; Week 24): 93% | APRI decreased 1 category from baseline, patients ([2]; Week 24): 14% | FIB-4 1.45-3.25, patients ([2]; Week 24): 7% | FIB-4 <1.45, patients ([2]; Week 24): 93% | FIB-4 decreased 1 category from baseline, patients ([2]; Week 24): 13% | APRI 0.5-1.5, patients ([2]; Week 48): 8% | APRI <0.5, patients ([2]; Week 48): 91% | APRI >1.5, patients ([2]; Week 48): 1% | APRI decreased 1 category from baseline, patients ([2]; Week 48): 10% | FIB-4 1.45-3.25, patients ([2]; Week 48): 5% | FIB-4 <1.45, patients ([2]; Week 48): 94% | FIB-4 >3.25, patients ([2]; Week 48): 1% | FIB-4 decreased 1 category from baseline, patients ([2]; Week 48): 14% | subjects with improvements in APRI and FIB-4 scores over time ([2]; pooled CVC 100 mg and 200 mg): ≥ 10% | sCD14 Baseline value, Mean ([3]; CVC 100 mg): 1.8e+06 pg/mL | sCD14 change from baseline at Week 12, Mean ([3]; CVC 100 mg): -140000 pg/mL | sCD14 change from baseline at Week 12, Median ([3]; CVC 100 mg): -160000 pg/mL | sCD14 change from baseline at Week 24, Mean ([3]; CVC 100 mg): -190000 pg/mL | sCD14 change from baseline at Week 24, Median ([3]; CVC 100 mg): -180000 pg/mL | sCD14 change from baseline at Week 32, Mean ([3]; CVC 100 mg): 110000 pg/mL | sCD14 change from baseline at Week 32, Median ([3]; CVC 100 mg): 120000 pg/mL | sCD14 change from baseline at Week 48, Mean ([3]; CVC 100 mg): 100000 pg/mL | sCD14 change from baseline at Week 48, Median ([3]; CVC 100 mg): 100000 pg/mL | sCD14 change from baseline at Week 12, Mean ([3]; CVC 200 mg): -230000 pg/mL | sCD14 change from baseline at Week 12, Median ([3]; CVC 200 mg): -210000 pg/mL | sCD14 change from baseline at Week 24, Mean ([3]; CVC 200 mg): -230000 pg/mL | sCD14 change from baseline at Week 24, Median ([3]; CVC 200 mg): -190000 pg/mL | sCD14 change from baseline at Week 32, Mean ([3]; CVC 200 mg): -20000 pg/mL | sCD14 change from baseline at Week 32, Median ([3]; CVC 200 mg): -20000 pg/mL | sCD14 change from baseline at Week 48, Mean ([3]; CVC 200 mg): -40000 pg/mL | sCD14 change from baseline at Week 48, Median ([3]; CVC 200 mg): -40000 pg/mL | plasma MCP-1 over time ([3]; Study 202, up to Week 48): increases over time
